Consider ten compounds from article PMC9017349, “Spiropyrimidinetriones: a Class of DNA Gyrase Inhibitors with Activity against Mycobacterium tuberculosis and without Cross-Resistance to Fluoroquinolones” (Antimicrobial Agents and Chemotherapy, 2022).

≈ marks a conversion by molar mass, not a printed value. Where “and” joins values, the source holds several entries; their conditions need not be identical. Equal entries are not always repeated. Where two headings read alike, the source gives them in different places.

In data set [1] the test system is M. tuberculosis H37Rv. Nature of the data set: microbe, parasite or virus in culture. Format: cell-based. The conditions noted are these: Mycobacterium tuberculosis, read-out: MIC90, H37Rv.
The test system of data set [2] is M. tuberculosis ΔcydA. Format: cell-based.
The test system of data set [3] is M. tuberculosis H37Rv. Briefly: MIC against M. tuberculosis H37Rv in 7H9 medium with various supplements. Format: cell-based, Mycobacterium tuberculosis. Particulars: for MIC: Mycobacterium tuberculosis.
For data set [4], the system named is M. tuberculosis H37Rv. Briefly: microbe, parasite or virus in culture. Format: cell-based. The conditions noted are these: for MIC / MBC: Mycobacterium tuberculosis, 168 h; for MIC: H37Rv, 7 days, Middlebrook 7H9 with OADC and glycerol, read-out: MIC (dose-response); for MBC: H37RV, transfer to charcoal agar, additional 7 days; for MBC / MBC relative to MIC: CARA.

The subject of data set [5] is replicating M. tuberculosis H37Rv. Format: cell-based. The conditions noted are these: 1× MIC.
The target of data set [6] is M. tuberculosis DNA gyrase (Mycobacterium tuberculosis, UniProt P9WG45+P9WG47). Nature of the data set: biochemical. The conditions noted are these: read-out: IC50, DNA gyrase supercoiling.
Data set [7] deals with recA promoter reporter in M. tuberculosis H37Rv. Format: cell-based, Mycobacterium tuberculosis. Particulars: for bioluminescence response in PrecA-LUX assay: over 7 days.
Data set [8] relates to H37Rv (RecA). Format: cell-based, Mycobacterium tuberculosis.
Data set [9] concerns iniB promoter reporter in M. tuberculosis H37Rv. Format: cell-based, Mycobacterium tuberculosis.
Data set [10] relates to M. tuberculosis expressing DsRed in murine RAW 264.7 cells. Nature of the data set: microbe, parasite or virus in culture. Format: cell-based. The conditions noted are these: for IC50: RAW 264.7, 72 h exposure, read-out: IC50, intracellular M. tuberculosis in murine macrophages.
Data set [11] deals with murine RAW 264.7 cells. Format: cell-based. Particulars: highest concentration tested.
Data set [12] in a line: physchem. The conditions noted are these: pH 6.5. From the text:
(§1) Aiming to identify a compound to progress to in vivo efficacy studies, compounds were profiled for physicochemical properties, PK, and safety.

Data set [13] is described as follows: in vitro. Particulars: human, plasma.
Text: as §1

Data set [14] deals with M. tuberculosis Erdman. Briefly: microbe, parasite or virus in culture. Format: cell-based. Particulars: Mycobacterium tuberculosis, read-out: MIC against the Erdman strain with 4% human serum albumin, 7H9 medium-ADC-glycerol plus 4% human serum albumin.
In data set [15] the test system is M. tuberculosis Erdman pFCA-LuxAB (Erdman Lux). The conditions noted are these: BALB/c mice, 12 days.
The conditions of data set [16]: for Average Conc. Found in plasma: infected BALB/c mice.
Data set [17] concerns S. pneumoniae. Particulars: cited from earlier work.
The subject of data set [18] is S. aureus. Particulars: cited from earlier work.
Data set [19] concerns N. gonorrhoeae. The conditions noted are these: cited from earlier work.
A short description of data set [20]: in vivo. The conditions noted are these: male, mouse.
Data set [21] in a line: in vivo. Particulars: BALB/c, mouse, 300 mg/kg.
The nature of data set [22]: in vitro. The conditions noted are these: mouse, plasma.
The subject of data set [23] is mouse lymphoma assay (micronucleation aberrations). The conditions noted are these: highest concentration tested; cited from earlier work.
Data set [24] relates to Mtb. Format: in vivo. The conditions noted are these: 100 mg/kg, day 21; limit 1.57 log10 CFU.
Data set [25] relates to M. tuberculosis. The conditions noted are these: 200 mg/kg, 14 days of dosing, published study; cited from earlier work.
Data set [26] concerns N. gonorrhoeae. Format: cell-based.
[27] abbreviates: H37RV, read-out: MIC, ADC/GLU/TW.
Where [28] appears, read: H37RV, read-out: MIC, DPPC/CAS/TX.
The mark [29] stands for this setting: H37RV, read-out: MIC, DPPC/Chol/BSA/TX.
Setting [30] is: H37RV, read-out: MIC, GLU/BSA/TX.
The mark [31] stands for this setting: H37RV, read-out: MIC, GLU/CAS/TX.

Sequence of M. tuberculosis DNA gyrase (P9WG45 whole entry): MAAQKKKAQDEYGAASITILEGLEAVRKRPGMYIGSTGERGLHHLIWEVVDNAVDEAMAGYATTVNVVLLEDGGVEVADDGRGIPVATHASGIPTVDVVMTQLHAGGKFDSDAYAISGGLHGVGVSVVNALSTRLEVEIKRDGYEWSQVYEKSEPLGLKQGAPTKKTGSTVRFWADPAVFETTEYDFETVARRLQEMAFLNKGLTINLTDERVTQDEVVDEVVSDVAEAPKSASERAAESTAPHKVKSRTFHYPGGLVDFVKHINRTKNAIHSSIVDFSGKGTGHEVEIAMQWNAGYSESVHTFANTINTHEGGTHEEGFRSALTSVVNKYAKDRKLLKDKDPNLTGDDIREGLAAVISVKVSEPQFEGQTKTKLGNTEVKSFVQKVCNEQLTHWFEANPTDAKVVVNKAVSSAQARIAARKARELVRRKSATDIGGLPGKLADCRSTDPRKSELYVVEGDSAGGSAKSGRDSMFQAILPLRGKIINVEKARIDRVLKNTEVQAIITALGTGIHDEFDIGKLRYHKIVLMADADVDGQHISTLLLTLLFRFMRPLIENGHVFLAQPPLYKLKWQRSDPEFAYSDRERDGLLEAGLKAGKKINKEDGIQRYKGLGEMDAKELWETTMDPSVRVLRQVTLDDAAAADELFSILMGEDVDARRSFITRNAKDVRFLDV
Sequence of M. tuberculosis DNA gyrase (P9WG47 whole entry): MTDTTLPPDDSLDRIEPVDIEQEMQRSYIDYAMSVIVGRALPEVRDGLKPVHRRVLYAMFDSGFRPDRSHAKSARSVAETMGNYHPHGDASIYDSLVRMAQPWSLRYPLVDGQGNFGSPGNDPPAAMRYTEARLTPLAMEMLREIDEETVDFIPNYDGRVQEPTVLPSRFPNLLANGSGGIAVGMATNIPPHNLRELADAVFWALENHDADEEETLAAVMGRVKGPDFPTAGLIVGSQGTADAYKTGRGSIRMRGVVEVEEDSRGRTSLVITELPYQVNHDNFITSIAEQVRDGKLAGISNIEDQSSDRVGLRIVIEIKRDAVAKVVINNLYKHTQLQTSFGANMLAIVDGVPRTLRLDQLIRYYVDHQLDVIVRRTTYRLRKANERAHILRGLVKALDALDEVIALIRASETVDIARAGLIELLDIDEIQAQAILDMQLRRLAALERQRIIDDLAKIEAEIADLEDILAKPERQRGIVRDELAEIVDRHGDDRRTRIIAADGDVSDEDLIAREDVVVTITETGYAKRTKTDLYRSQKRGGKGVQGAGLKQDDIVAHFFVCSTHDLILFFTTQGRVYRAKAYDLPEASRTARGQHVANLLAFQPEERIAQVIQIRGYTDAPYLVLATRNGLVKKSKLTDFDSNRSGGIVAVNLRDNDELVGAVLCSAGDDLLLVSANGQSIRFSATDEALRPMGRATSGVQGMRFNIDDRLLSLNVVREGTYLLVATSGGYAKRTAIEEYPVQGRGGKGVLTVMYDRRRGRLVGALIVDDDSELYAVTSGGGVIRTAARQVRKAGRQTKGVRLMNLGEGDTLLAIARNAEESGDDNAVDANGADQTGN

On to `C[C@H]1COc2c(N3CCN(C)CC3)c(F)cc3c(=O)c(C(=O)O)cn1c23` [Levofloxacin], for which the MIC90 in [1] was 0.49 µM (≈ 0.177 µg/mL).
Same read-out and setting: under `CC(C)=CCC/C(C)=C/CNCCNC1C2CC3CC(C2)CC1C3` (stereo not drawn) [SQ109] stands 0.49 µM (≈ 0.162 µg/mL).
For the compound `CO[C@H]1/C=C/O[C@@]2(C)Oc3c(C)c(O)c4c(O)c(c(/C=N/N5CCN(C)CC5)c(O)c4c3C2=O)NC(=O)/C(C)=C\C=C\[C@H](C)[C@H](O)[C@@H](C)[C@@H](O)[C@@H](C)[C@H](OC(C)=O)[C@@H]1C` [Rif, rifampicin], in data set [1], the MIC90 is 0.002 µM (≈ 0.00165 µg/mL). Moreover, in data set [2], the “MIC90, ΔcydA” value was 0.0046 µM (≈ 0.00379 µg/mL).
Take `Cc1nnc(-c2noc3c(F)c4c(cc23)CC2(C(=O)NC(=O)NC2=O)[C@H]2[C@H](C)O[C@H](C)CN42)o1` [Compound 22]: the “antibacterial activity in culture lower than moxifloxacin” value in data set [3] was found to be 8 fold. Further, the MIC in [3] (setting [27]) is 1.7 µM (≈ 0.8 µg/mL); in data set [3] (setting [28]), 5.2 µM (≈ 2.45 µg/mL); in data set [3] (setting [29]), 2.9 µM (≈ 1.36 µg/mL); in data set [3] (setting [30]), 3 µM (≈ 1.41 µg/mL); in [3] (setting [31]) it was 2.6 µM (≈ 1.22 µg/mL); in data set [4], 7.26 µM (≈ 3.42 µg/mL). In data set [14], the MIC was 16 µM. In data set [4], the MBC was determined as 15.6 µM (≈ 7.34 µg/mL). Also, the “time to 3-log kill” value in data set [5] turned out to be 7 days. Further, in [1], the MIC90 came out at 1 µM (≈ 0.47 µg/mL). The IC50 (in general, the concentration needed to halve the response being measured) in [6] was 2 µM; in [10] (Mycobacterium tuberculosis, RAW264.7, 72 h) it was 6.3 µM; in data set [10] it was 6 µM. For the same compound, the “concentration of maximal effect in PrecA-LUX assay” value in data set [7] (at 7 days) is 0.4 µM. In data set [7], the “bioluminescence response in PrecA-LUX assay” value is on record as “strong bioluminescence signal”. For the same compound, in data set [8], the “PrecA-LUX MIC” value is given as ~ 3.9 μM. Further, the “bioluminescence response in PiniB-LUX assay” value in [9] was “none of the DNA gyrase inhibitors, including 22, elicited a strong bioluminescence response”. For the same compound, in data set [10], the “macrophage IC50 higher than the average in vitro broth MIC” value is “less than 3 fold”. Further, the “toxicity against the macrophage cell line” value in data set [11] is above 100 µM. In data set [12], the solubility (thermodynamic) (as a rule, solubility found after equilibrating the solid with the medium) was 140 µM (≈ 65.9 µg/mL). Besides, the fraction unbound (usually the share of the substance not bound to proteins or other matrix) in data set [13] was 0.15; in data set [22], 0.068. Besides, the “tolerability” value in data set [15] (300 mg/kg p.o. daily) is listed as “generally well tolerated”. Besides, the “Found Concentration in plasma, single mice” value in data set [16] (infected BALB/c mice A, B, C, 300 mg/kg QD, 1 hr post dose, 300 mg/kg) is 229000 ng/mL and 117000 ng/mL and 148000 ng/mL. Further, the “Average Conc. Found in plasma” value in data set [16] (300 mg/kg QD, 1 hr post dose) worked out at 165000 ng/mL; in [16] (300 mg/kg QD, 24 hr post dose), 6100 ng/mL. Besides, in [16] (predicted from PK in healthy mice, for over 8 h), the “free drug concentration over the MIC” value is given as “about 2 fold”. Also, the “MIC against S. pneumoniae” value in data set [17] was 0.25 µM (≈ 0.118 µg/mL). In addition, the “MIC against S. aureus” value in data set [18] was 0.5 µM (≈ 0.235 µg/mL). For the same compound, the “MIC against N. gonorrhoeae” value in [19] is 2.0 µM (≈ 0.941 µg/mL). Moreover, the AUC(0-inf) (usually total exposure, with the tail of the curve extrapolated) worked out at 2.37 µg·h/mL in [20] (iv, 2 mg/kg); 24.6 µg·h/mL in [20] (po, 20 mg/kg); 343 µg·h/mL in data set [20] (po, 100 mg/kg); 1270 µg·h/mL in data set [20] (po, 300 mg/kg); 1440 µg·h/mL in data set [20] (po, 500 mg/kg). Further, the Vd – broadly, a proportionality between amount in the body and measured concentration, not a real space – in [20] (iv, 2 mg/kg) was 5.1 L/kg. Further, in data set [20] (iv, 2 mg/kg), the clearance (in general, the volume of plasma or blood freed of the substance per unit of time) came to 14.3 mL/min/kg. For the same compound, in data set [20] (iv, 2 mg/kg), the half-life (as a rule, the time in which the quantity being followed falls by half) was 3.7 h. Also, the Cmax – broadly, the highest concentration seen after dosing – in data set [20] (po, 20 mg/kg) was 9.5 µg/mL; in data set [20] (po, 100 mg/kg), 47 µg/mL; in data set [20] (po, 300 mg/kg) it was 133 µg/mL; in data set [20] (po, 500 mg/kg) it was 117 µg/mL; in data set [21], 165 ± 58 µg/mL. The Tmax – broadly, the time from dosing to the highest level – came out at 1 h in data set [20] (po, 20 mg/kg); 2.8 h in [20] (po, 100 mg/kg); 1 h in data set [20] (po, 300 mg/kg); 0.83 h in [20] (po, 500 mg/kg). In [20] (po, 20 mg/kg), the bioavailability was found to be 104%. In addition, the “genotoxicity in the MLA” value in [23] was “no genotoxicity at the highest concentration tested”.
Take `NNC(=O)c1ccncc1` [Isoniazid, isoniazid]: in data set [4], the “MBC relative to MIC” value is listed as “less than 4 fold”, the MIC came to 4.61 µM (≈ 0.632 µg/mL) and the MBC is 3.9 µM (≈ 0.535 µg/mL). Moreover, the MIC90 in [1] stood at 3.95 µM (≈ 0.542 µg/mL). Besides, the “bioluminescence response in PrecA-LUX assay” value in [7] is on record as “did not elicit significant luminescence”. In addition, the “PrecA-LUX MIC” value in data set [8] is reported as ~ 7 μM. Also, the “bioluminescence response in PiniB-LUX assay” value in data set [9] was “strong signal”.
In the case of `COc1c(N2C[C@@H]3CCCN[C@@H]3C2)c(F)cc2c(=O)c(C(=O)O)cn(C3CC3)c12` [Moxifloxacin, moxifloxacin], the MIC in data set [3] (H37Rv, 7H9 medium with DPPC/Casitone/tyloxapol, read-out: MIC, DPPC/CAS/TX) was found to be 0.2 µM (≈ 0.0803 µg/mL); in [3] (H37Rv, 7H9 medium with albumin-dextrose catalase/glucose/Tween, read-out: MIC, ADC/GLU/TW) it was 0.17 µM (≈ 0.0682 µg/mL); in data set [3] (H37Rv, 7H9 medium with glucose/BSA/tyloxapol, read-out: MIC, GLU/BSA/TX) it was 0.3 µM (≈ 0.12 µg/mL); in data set [4], 0.38 µM (≈ 0.153 µg/mL). Also, the MBC in data set [4] was 0.78 µM (≈ 0.313 µg/mL). For the same compound, in data set [1], the MIC90 was 0.24 µM (≈ 0.0963 µg/mL). For the same compound, in data set [7] (at 0.5× MIC), the “PrecA-LUX signal higher than for 22” value was around 6 fold. For the same compound, in data set [8], the “PrecA-LUX MIC” value was ~ 0.19 μM. The “n, number of mice showing viable bacteria above the lower limit of detection/total number of animals tested” value in data set [24] is recorded as 3/6. Also, the CFU reduction in data set [25] is 3.3 log10 CFU.
Regarding `CC1CN2c3c(cc4c(N5C(=O)OCC5CCO)noc4c3F)CC3(C(=O)NC(=O)NC3=O)C2C(C)O1` (stereo not drawn) [Compound 1], the MIC in data set [3] (setting [27]) came to 3.9 µM (≈ 2.02 µg/mL); in [3] (setting [28]) it was 6.2 µM (≈ 3.21 µg/mL); in data set [3] (setting [29]), 9.4 µM (≈ 4.86 µg/mL); in data set [3] (setting [30]), 9.4 µM (≈ 4.86 µg/mL); in data set [3] (setting [31]), 4.7 µM (≈ 2.43 µg/mL).
Consider `CC(=O)NC[C@H]1CN(c2ccc(N3CCOCC3)c(F)c2)C(=O)O1` [Linezolid, linezolid], for which, in [4], the “MBC relative to MIC” value is “greater than 4 fold”, the MIC turned out to be 1.51 µM (≈ 0.509 µg/mL) and the MBC was found to be 7.8 µM (≈ 2.63 µg/mL).
As to `CC[C@@H](CO)NCCN[C@@H](CC)CO` [Ethambutol, ethambutol, reference compound], the “n, number of mice showing viable bacteria above the lower limit of detection/total number of animals tested” value in data set [24] is on record as 5/5. For the same compound, in [15] (100 mg/kg p.o. daily), the “CFU decline in lung burdens relative to the untreated controls” value is given as 2.6 log10 CFU.
On to `C[C@@H]1CN2c3c(cc4c(N5C(=O)OC[C@@H]5C)noc4c3F)CC3(C(=O)NC(=O)NC3=O)[C@H]2[C@H](C)O1` [Zoliflodacin, zoliflodacin, reference compound], for which the MIC was 6.4 µM (≈ 3.12 µg/mL) in data set [3] (setting [27]); 19 µM (≈ 9.26 µg/mL) in data set [3] (setting [28]); 19 µM (≈ 9.26 µg/mL) in [3] (setting [29]); 12 µM (≈ 5.85 µg/mL) in [3] (setting [30]); 19 µM (≈ 9.26 µg/mL) in data set [3] (setting [31]). Also, in data set [26], the “MIC against N. gonorrhoeae lower than that for 22” value is 8 fold.
